pIC50: −log10 of the molar value.
Key:
[1] = test system: Arachidonate-Induced Bronchospasm (lipoxygenase); assay: Pulmonary Mechanics Assay: arachidonate-induced bronchospasm with indomethacin (SRS-A response, indicative of lipoxygenase inhibition); format: in vivo, male Hartley guinea pigs; settings: Cavia porcellus, guinea pig; for inhibition in vivo at 15 mg/kg: IV dosing, read-out: Inhibition of Arachidonate-Induced Bronchospasm (IV Dosing), % Inh. with Indomethacin
Procedure: (§1) The bronchodilating activity of the compounds was tested in a pulmonary mechanics assay. Basically, male Hartley guinea pigs (about 400-500 g) were anesthetized with urethane (2 g/kg, i.p.) and placed in a whole body Plethysmograph. Cannulations of a jugular vein and carotid artery were performed for compound administration and monitoring blood pressure, respectively. The trachea was cannulated for respiration at a constate volume via a miniature starling pump. A Validyne differential pressure transducer (±20 cm H2 O) sensed transpleural pressure via a 15 gauge needle inserted into the pleural cavity and a sidearm from the tracheal cannula. Tidal volume was sensed by another Validyne differential pressure transducer (±2 cm H2 O) from pressure changes inside the plethysmograph. An on-line Buxco pulmonary mechanics computer calculated air flow, dynamic lung compliance and lung resistance. The values were recorded on a print-out.
(§2) The guinea pigs were pretreated with succinyl choline (1.2 mg/kg, i.v.) to arrest spontaneous respiration. A control challenge of arachidonic acid (0.5-1.0 mg/kg, i.v.) was administered, and the animals were then dosed with the test compound by various routes. At least 10 minutes were allowed to expire between arachidonic acid challenges. A second challenge was given and compared to the control response. This comparison was indicative of cyclooxygenase inhibition. Indomethacin (10 mg/kg, i.v.) was administered immediately after the second challenge. A third challenge of a higher dose of arachidonic acid (5-10 mg/kg, i.v.) was given. This response was induced by SRS-A and compared to the responses elicited by a separate control group of animals. Activity was indicative of lipoxygenase inhibition. Propranolol (0.005 mg/kg. i.v.) may be given prior to the third challenge to enhance the response to SRS-A.
(§3) Bronchoconstriction induced by arachidonic acid with or without indomethacin was expressed as maximum percent change in dynamic lung compliance (Cdyn) and maximum percent increase in lung resistance (RL). Each guinea pig served as its own control for cyclooxygenase evaluation. The results are shown in Table I and are expressed as the percent inhibition of control.

[2] = test system: Arachidonate-Induced Ear Edema; assay: Arachidonic Acid-Induced Ear Edema Assay; format: in vivo; settings: topical, mouse ear; for inhibition in vivo at 0.4 mg: 400 μg topically; for inhibition in vivo at 0.4 mg / inhibition in vivo at 0.2 mg / inhibition in vivo at 0.1 mg: read-out: Inhibition of Arachidonate-Induced Ear Edema, % Inh. (μg topically); for inhibition in vivo at 0.2 mg: 200 μg topically; for inhibition in vivo at 0.1 mg: 100 μg topically
Procedure: The topical anti-inflammatory activity of a compound was determined by its ability to inhibit an experimentally-induced inflammation in the mouse ear. Basically, four milligrams of arachidonic acid in acetone were applied to the dorsal surface of one ear with a microliter pipette. The mice were sacrificed at various times after application of arachidonic acid (one-half to six hours). A section of each ear was removed with a 7 mm round punch and weighed on an electronic or analytical balance. The difference in weight between treated and untreated ears was determined. Compounds to be evaluated for anti-inflammatory activity can be incorporated directly into the irritant mixture or at various times prior to or after application of arachidonic acid.
The degree of anti-inflammatory activity is shown in Table I, and is expressed in terms of the percent inhibition of ear weight increase.

[3] = test system: Arachidonate-Induced Bronchospasm (cyclooxygenase); assay: Pulmonary Mechanics Assay: arachidonate-induced bronchospasm without indomethacin (indicative of cyclooxygenase inhibition); format: in vivo, male Hartley guinea pigs; settings: Cavia porcellus, guinea pig; for inhibition in vivo at 15 mg/kg: IV dosing, read-out: Inhibition of Arachidonate-Induced Bronchospasm (IV Dosing), % Inh. without Indomethacin
Procedure: as §1, §2, §3

5-lipoxygenase = molecular target: T1, 5-lipoxygenase (Rattus norvegicus, UniProt P12527); assay: Inhibition of 5-lipoxygenase in cell-free homogenate of rat basophilic leukemia (RBL-1) cells; format: biochemical; settings: RBL-1 cell-free homogenate; for inhibition at 3 µM: read-out: Inhibition of 5-Lipoxygenase, % Inh. @ 3 μM
T1 construct: The cell-free homogenate was prepared by sonication of the cells followed by centrifugation at 40,000 xg; endogenous in cells; host or cells: RBL-1 (rat basophilic leukemia) cells, 40,000 xg supernatant of the sonicate
T1 sequence (P12527 1-673): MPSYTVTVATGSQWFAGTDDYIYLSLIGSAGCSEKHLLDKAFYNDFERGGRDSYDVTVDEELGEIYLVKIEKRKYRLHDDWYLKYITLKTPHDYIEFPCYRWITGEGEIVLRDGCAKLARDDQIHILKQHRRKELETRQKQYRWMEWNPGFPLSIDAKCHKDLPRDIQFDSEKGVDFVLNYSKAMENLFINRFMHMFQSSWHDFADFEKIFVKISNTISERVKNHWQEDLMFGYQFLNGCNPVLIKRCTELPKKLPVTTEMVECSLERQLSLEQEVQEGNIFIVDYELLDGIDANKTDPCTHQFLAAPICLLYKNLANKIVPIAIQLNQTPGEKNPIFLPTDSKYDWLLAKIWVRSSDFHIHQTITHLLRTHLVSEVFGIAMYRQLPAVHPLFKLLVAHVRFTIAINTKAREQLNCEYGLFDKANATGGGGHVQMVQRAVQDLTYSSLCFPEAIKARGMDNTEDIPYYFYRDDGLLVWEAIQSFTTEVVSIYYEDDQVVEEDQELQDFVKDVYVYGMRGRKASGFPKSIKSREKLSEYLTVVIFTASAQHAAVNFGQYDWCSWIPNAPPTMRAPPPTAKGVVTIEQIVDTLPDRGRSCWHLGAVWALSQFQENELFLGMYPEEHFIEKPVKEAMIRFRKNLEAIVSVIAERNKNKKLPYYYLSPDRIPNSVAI
Procedure: The inhibition of 5-lipoxygenase was tested in a cell-free homogenate by the procedure of B. Jakschik et al., Biochem.Biophys.Res.Comm. 95, 103 (1980). Basically, rat basophilic leukemia cells (RBL-1 cells) were maintained in culture in a suitable medium, and were collected by centrifugation prior to assay. The cell-free homogenate was prepared by sonication of the cells followed by centrifugation at 40,000 xg. The CaCl2 dependent production of lipoxygenase products from ^14 C-arachidonic acid in the 40,000 xg supernatant was monitored in the presence of buffer (or other vehicle) or drug. Products were isolated by acidification and extraction, followed by thin layer chromatography. Radioactive areas corresponding to the authentic lipoxygenase products were quantitated by liquid scintillation counting. Data was reported as the IC50, the concentration causing 50% inhibition of the generation of lipoxygenase products. The results are shown it Table I as the percent inhibition at 3 μM or the amount of compound necessary to cause 50% inhibition.

[4] = ID dosing, read-out: Inhibition of Arachidonate-Induced Bronchospasm (ID Dosing), % Inh. with Indomethacin
[5] = ID dosing, read-out: Inhibition of Arachidonate-Induced Bronchospasm (ID Dosing), % Inh. without Indomethacin

Row | inhibition at 3 µM (5-lipoxygenase) [%] | pIC50 (5-lipoxygenase) | SMILES | inhibition in vivo at 15 mg/kg [1] [%] | inhibition in vivo at 0.4 mg [2] [%] | inhibition in vivo at 15 mg/kg [3] [%] | Inhibition of Arachidonate-Induced Ear Edema, ED50 [2] [µg] | inhibition in vivo at 0.2 mg [2] [%] | also measured
1 | 100 |  | CCCCCCCCCCN(O)C(=O)N(CC)CC [Example 1, N,N-Diethyl-N'-decyl-hydroxyurea] | 38 | 52 | 54 |  |  | 
2 |  | 7.05 | CCCCCCCCCCN(O)C(=O)NC [Example 2, N-Methyl-N'-decyl-N'-hydroxyurea] | 44 | 82 | 32 | 29 |  | 
3 | 100 |  | CCCCCCCCCCN(O)C(=O)NCCC(=O)OC [Example 4, N-[2-(Methoxycarbonyl)ethyl]-N'-decyl-N'-hydroxyurea] | < 20 | 65 | -39 |  |  | 
4 | 100 |  | CCCCCCCCCCN(O)C(=O)NCCCC(=O)OC [Example 5, N-[3-(Methoxycarbonyl)propyl]-N'-decyl-N'-hydroxyurea] | 37 | 49 | < 20 |  |  | 
5 | 100 |  | CCCCCCCCCCN(O)C(=O)NCCCCCCC(=O)OC [Example 6, N-[6-(Methoxycarbonyl)hexyl]-N'-decyl-N'-hydroxyurea] | < 20 | 30 | -45 |  |  | 
6 | 77 | 5.74 | CCCCCCCCN(O)C(=O)N(C)C [Example 7, N,N-Dimethyl-N'-octyl-N'-hydroxyurea] | 41 |  | 61 | 49 |  | 
7 |  | 7.00 | CCCCCCCCCCN(O)C(=O)N(C)C [Example 11, N,N-Dimethyl-N'-decyl-N'-hydroxyurea] | 98 | 90 | 95 | 43 |  | inhibition in vivo at 50 mg/kg [1, 4]: -46%; inhibition in vivo at 50 mg/kg [3, 5]: 36%
8 | 100 |  | CCCCCCCCCCCN(O)C(=O)N(C)C [Example 12, N,N-Dimethyl-N'-undecyl-N'-hydroxyurea] |  |  |  | 65 | 94 | inhibition in vivo at 50 mg/kg [1, 4]: 40%; inhibition in vivo at 50 mg/kg [3, 5]: -9%
9 | 95 |  | CCCCCCCCCCCCN(O)C(=O)N(C)C [Example 13, N,N-Dimethyl-N.-dodecyl-N'-hydroxyurea] | 66 |  | 57 |  | 90 | 
10 | 95 |  | CCCCCCCCCCCCCN(O)C(=O)N(C)C [Example 14, N,N-Dimethyl-N'-tridecyl-N'-hydroxyurea] |  |  |  | 156 | 95 | inhibition in vivo at 50 mg/kg [1, 4]: 49%; inhibition in vivo at 50 mg/kg [3, 5]: -128%
11 | 100 |  | CCCCCCCCCCCCCCN(O)C(=O)N(C)C [Example 15, N,N-Dimethyl-N'-tetradecyl-N'-hydroxyurea] |  |  |  |  | 26 | inhibition in vivo at 50 mg/kg [1, 4]: 46%; inhibition in vivo at 50 mg/kg [3, 5]: -26%
12 |  | 6.68 | CCCCCCCCCCNC(=O)N(C)O [Example 16, N-Decyl-N'-methyl-N'-hydroxyurea] | 58 | 73 | 55 | 28 |  | inhibition in vivo at 100 mg/kg ([1]; ID dosing, 100 mg/kg, read-out: Inhibition of Arachidonate-Induced Bronchospasm (ID Dosing), % Inh. with Indomethacin): 35%; inhibition in vivo at 100 mg/kg ([3]; ID dosing, 100 mg/kg, read-out: Inhibition of Arachidonate-Induced Bronchospasm (ID Dosing), % Inh. without Indomethacin): < 20%
13 |  | 6.80 | CCCCCCCCCCN(C)C(=O)N(C)O [Example 17, N-Decyl-N,N'-dimethyl-N'-hydroxyurea] | 79 | 88 | 41 | 24 |  | 
14 | 96 | 6.55 | CCCCCCCCCCC1CN(O)C(=O)N1C (centres unmarked) [Example 28, 4-Decyl-1-hydroxy-3-methylimidazolidin-2-one] |  | 85 |  | 134 |  | 
15 | 39 |  | CN(O)C(=O)NCCc1ccc(-c2ccccc2)cc1 [Example 31] |  |  |  |  | 40 | 
16 | 100 |  | CN(O)C(=O)NCCCCCCCOCc1ccccc1 [Example 39, N-[7-(Benzyloxy)heptyl]-N'hydroxy-N'-methylurea] |  |  |  | 31 | 70 | 
17 | 3 |  | COc1ccc(CC(C)(C)NC(=O)N(C)O)cc1OC [Example 56, N-[2-(3,4-Dimethoxyphenyl)-1,1-dimethylethyl]-N'hydroxy-N'-methylurea] |  |  |  |  |  | inhibition in vivo at 0.1 mg [2]: 38%
18 | 0 |  | COc1cc2c(cc1OC)CCN(C(=O)N(C)O)CC2 [Example 62, 7,8-Dimethoxy-N-hydroxy-N-methyl-1,2,4,5-tetrahydro-3H-3-benzazepine-3-carboxamide] |  |  |  |  | 35 | 
19 | 41 |  | COc1ccc(CCNC(=O)N(C)O)cc1OCc1ccccc1 [Example 69, N-[2-(3-Benzyloxy-4-methoxyphenyl)ethyl]-N'-hydroxy-N'-methylurea] |  |  |  |  | 38 | 

Row | SMILES | inhibition at 3 µM (5-lipoxygenase) [%] | pIC50 (5-lipoxygenase) | inhibition in vivo at 15 mg/kg [1] [%] | inhibition in vivo at 0.4 mg [2] [%] | inhibition in vivo at 15 mg/kg [3] [%] | Inhibition of Arachidonate-Induced Ear Edema, ED50 [2] [µg] | inhibition in vivo at 0.2 mg [2] [%] | also measured
20 | COc1ccc(CCNC(=O)N(OC(C)=O)C(C)(C)C)cc1OC [Example 52, N-[2-(3,4-Dimethoxyphenyl)ethyl]-N'-acetoxy-N'-t-butylurea] | 9 |  |  |  |  |  |  | inhibition in vivo at 0.1 mg [2]: 69%
